Reference: PMC12421817, “c-di-GMP regulates bacterial NAD biosynthesis via targeting the transcriptional repressor NadR” (mBio, 2025)

Assays:
YcgR = target: T1, YcgR (Salmonella enterica, UniProt Q8ZP19); experiment: UV-crosslinking with biotinylated c-di-GMP (YcgR as positive-control protein); type: binding
T1 construct: His6-YcgR

NadR = target: T2, NadR (Salmonella enterica, UniProt P24518); experiment: ITC; also UV-crosslinking with unlabeled competitor, EMSA, enzyme activity stimulation; type: binding
T2 construct: N-terminal His6-tagged NadR
T2 sequence (P24518 1-410): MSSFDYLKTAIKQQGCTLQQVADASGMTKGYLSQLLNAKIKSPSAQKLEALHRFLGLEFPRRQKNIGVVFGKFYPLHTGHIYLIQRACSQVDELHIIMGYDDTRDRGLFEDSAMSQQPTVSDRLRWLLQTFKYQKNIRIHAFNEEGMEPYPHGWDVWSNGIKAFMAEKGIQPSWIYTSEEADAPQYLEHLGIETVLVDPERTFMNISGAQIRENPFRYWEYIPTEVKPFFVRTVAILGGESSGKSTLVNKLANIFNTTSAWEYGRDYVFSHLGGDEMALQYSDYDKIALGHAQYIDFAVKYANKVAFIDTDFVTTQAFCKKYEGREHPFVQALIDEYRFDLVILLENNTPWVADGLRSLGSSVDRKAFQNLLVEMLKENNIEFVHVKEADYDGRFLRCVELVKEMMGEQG

[1] = target: T3, NadR (Salmonella enterica serovar Typhimurium) (UniProt P24518); experiment: EMSA; settings: EMSA: 50 ng DNA, 20 mM Tris pH 7.5, 100 mM NaCl, 10% glycerol, 4 mM MgCl2, 1% NP-40, 1 mM DTT, 25 uL, 20 min room temperature; 6% native PAGE, 0.5x TBE, SYBR …
T3 sequence: T2 sequence (P24518 1-410)

T1 sequence (Q8ZP19 whole entry): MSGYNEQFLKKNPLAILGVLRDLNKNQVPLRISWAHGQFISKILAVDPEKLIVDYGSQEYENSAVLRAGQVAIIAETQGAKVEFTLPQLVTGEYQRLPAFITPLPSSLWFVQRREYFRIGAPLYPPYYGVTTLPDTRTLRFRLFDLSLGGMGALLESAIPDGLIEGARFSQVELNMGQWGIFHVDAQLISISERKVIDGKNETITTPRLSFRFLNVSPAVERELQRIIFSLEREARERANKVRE

Compound	UV-crosslinking with biotinylated c-di-GMP (YcgR as positive-control protein) (YcgR)	Kd (NadR) [nM]	binding [1]
Nc1nc2c(ncn2[C@@H]2O[C@@H]3COP(=O)(O)O[C@H]4[C@@H](O)[C@H](n5cnc6c(=O)[nH]c(N)nc65)O[C@@H]4COP(=O)(O)O[C@H]3[C@H]2O)c(=O)[nH]1 [c-di-GMP]	YcgR could obviously bind biotinylated c-di-GMP, while InvF, which was used as a negative control, showed no biotin-binding signal	160 ± 20	–
GCTCATCGTGGCTTCTCGTTTTACTGACTTAACGAAACAACCGAATGAAAGCGTAATAAACGCCACAATCGGTTAATTTGTTTTATATGCTAAACAAGATAGCTGATTCAATAAGGAAAGTCACAATAATTACGTAGCCCCGTATCTGATGGCGGCGTAACGTCTTATCTGGCCTACGTGAGCGGTGCCGTCTGTAGGCCTGAT (double strand) [nadA-pnuC promoter]	–	–	binds
GGTTCTTGTTTAATTTACTAAACATGGTTGCGGCAGATTAGCACTATATGGCGCTAAAAAGCACGTTATGATTTCGCTGGTGTTGTGCTTATTAAACATAAAATAAAAATACGGCGAGAGATAAACGGCAAAAAATATTTTATAGGGCAGGGTGTTAGCGTCGGATTTTGTAGTGAAATAAAGATGCTGTTAGGTTACTC (double strand) [nadB promoter]	–	–	binds
